Experimental findings from US10030016B2 (Sunesis Pharmaceuticals, Inc., priority 2009, dated 2018) are described below.

Experiment [1] has as its system phospho-akt (Thr308) in PC-3 cells. In words: Inhibition of phospho-akt (Thr308) in PC-3 cells, MSD phospho-akt 308 ELISA kit. In kind it is cell-based. The following applies: Homo sapiens, 2 hours, no serum, read-out: EC50. A digest of the protocol:
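Phospho-Akt (Thr308) levels were measured by MSD ELISA after PC-3 cells received compound for 2 hours in serum-free medium. Controls: DMSO (high), 5 μM wortmannin (low).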

The target of a further experiment is PDK1 (Homo sapiens (Human), UniProt O15530). In words: PDK1 kinase assay (coupled PDK1/AKT/FAM-crosstide assay, IMAP fluorescence polarization). In kind it is biochemical. A digest of the protocol:
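Coupled cascade: 0.75 nM PDK1 (51-359) → 10 nM AKT2 (140-467-PIFtide) → 100 nM FAM-crosstide. ATP 40 μM, 25° C, 30 min. IMAP FP (ex 485/em 530), 2 h binding. ΔmP vs conc, 4-param fit.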

[2] abbreviates: inhibition of P308 Akt in PC-3 cells using MSD.
Setting [3] is: inhibition of P308 Akt in PC-3 cells, MSD.
Setting [4] is: inhibition of phospo-PDK1 in vitro.

SMILES strings stand for the structures. pEC50, pIC50: −log10 of the molar value. Counter-ions that a name gives are not always drawn. Like-named read-outs stand apart in the source and are kept apart here.

PDK1, sequence (O15530 51-359): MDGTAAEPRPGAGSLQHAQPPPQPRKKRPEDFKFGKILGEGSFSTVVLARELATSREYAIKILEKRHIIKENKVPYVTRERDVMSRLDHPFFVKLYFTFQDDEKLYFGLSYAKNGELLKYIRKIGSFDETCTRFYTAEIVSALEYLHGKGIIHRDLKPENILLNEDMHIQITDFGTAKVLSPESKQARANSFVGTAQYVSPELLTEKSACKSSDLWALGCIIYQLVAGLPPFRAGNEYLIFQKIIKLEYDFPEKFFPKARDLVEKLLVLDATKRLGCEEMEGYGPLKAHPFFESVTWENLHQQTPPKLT

Turning to `N#Cc1cnc2c(c1)c(NCc1ccc(F)c(F)c1)nn2Cc1ccc(-c2cnc(N)cn2)cc1` [Example 259, 1-(4-(5-aminopyrazin-2-yl)benzyl)-3-(3,4-difluorobenzylamino)-1H-pyrazolo[3,4-b]pyridine-5-carbonitrile], the pEC50 in experiment [1] (setting [2]) was below 5.00. At PDK1 (inhibition of PDK1 in vitro), this molecule gave a pIC50 of 6.00 to 7.00.

Regarding `C[C@H](NC(=O)c1cccnc1NCc1ccc(-c2cnc3[nH]c(=O)[nH]c3c2)cc1)c1ccc(F)c(F)c1` [Example 366, (S)-N-(1-(3,4-difluorophenyl)ethyl)-2-(4-(2-oxo-2,3-dihydro-1H-imidazo[4,5-b]pyridin-6-yl)benzylamino) nicotinamide], the pEC50 in experiment [1] (setting [2]) is above 6.00. This molecule also had a pIC50 against PDK1 (inhibition of PDK1 in vitro) above 7.00.

`Nc1ncnc2ccc(-c3ccc(CNc4ncc(C(F)(F)F)nc4C(=O)NCc4ccc(F)c(F)c4)s3)cc12` [Example 10.10, 3-(((5-(4-aminoquinazolin-6-yl)thiophen-2-yl)methyl)amino)-N-(3,4-difluorobenzyl)-6-(trifluoromethyl)pyrazine-2-carboxamide]: in experiment [1] (setting [3]), the negative-log EC50 (pEC50) was below 5.00. The molecule further showed a pIC50 against PDK1 (setting [4]) above 7.00.

As to `Nc1ncnc2c1c(-c1ccc(CNc3ncc(C(F)(F)F)cc3C(=O)NCc3ccc(F)c(F)c3)cc1)cn2CCO` [Example 333, 2-(4-(4-amino-7-(2-hydroxyethyl)-7H-pyrrolo[2,3-d]pyrimidin-5-yl)-benzylamino)-N-(3,4-difluorobenzyl)-5-(trifluoromethyl)nicotinamide], the pEC50 in experiment [1] (setting [2]) is above 6.00. At PDK1 (inhibition of PDK1 in vitro), this molecule showed a pIC50 above 7.00.

With `Nc1n[nH]c2ncc(-c3ccc(CNc4ncc(C(F)(F)F)cc4C(=O)Nc4cccnc4)cc3)cc12` [Example 289, 2-(4-(3-amino-1H-pyrazolo [3,4-b]pyridin-5-yl)benzylamino)-N-(pyridin-3-yl)-5-(trifluoromethyl) nicotinamide], the pEC50 in experiment [1] (setting [2]) was above 6.00. This molecule showed a pIC50 at PDK1 (inhibition of PDK1 in vitro) above 7.00.

Consider `C[C@H](NC(=O)c1cccnc1N[C@@H](COc1ccc2[nH]c(=O)[nH]c2c1)c1cccc(Cl)c1)c1ccc(F)c(F)c1` [Example 16.9, 2-((R)-1-(3-chlorophenyl)-2-(2-oxo-2,3-dihydro-1H-benzo[d]imidazol-5-yloxy)ethylamino)-N-((S)-1-(3,4-difluorophenyl)ethyl)nicotinamide], for which, in experiment [1] (setting [3]), the pEC50 is above 6.00. For the same molecule, the pIC50 against PDK1 (setting [4]) is 6.00 to 7.00.

For `O=C(NCc1ccc(F)c(F)c1)c1cccnc1NCc1nc(-c2c[nH]c3ncccc23)cs1` [Ex. 6.11, N-(3,4-difluorobenzyl)-2-({[4-(1H-pyrrolo[2,3-b]pyridin-3-yl)-1,3-thiazol-2-yl]methyl}amino) pyridine-3-carboxamide], in experiment [1] (setting [3]), the pEC50 is 5.00 to 6.00. Also, the pIC50 against PDK1 (setting [4]) is 6.00 to 7.00.

Turning to `Nc1ccc(-c2ccc(CNc3nccc4ncn(Cc5ccc(F)c(F)c5)c(=O)c34)cc2)cn1` [Example 374, 5-(4-(6-aminopyridin-3-yl)benzylamino)-3-(3,4-difluorobenzyl)pyrido[4,3-d] pyrimidin-4(3H)-one], the pEC50 in experiment [1] (setting [2]) was 5.00 to 6.00. Moreover, at PDK1 (inhibition of PDK1 in vitro), the pIC50 was above 7.00.

As to `C[C@H](NC(=O)c1cc(S(N)(=O)=O)cnc1NCc1ccc(-c2ccc3ncnc(N)c3c2)s1)c1ccc(F)c(F)c1` [Example 8.7.3, 2-({[5-(4-aminoquinazolin-6-yl)thiophen-2-yl]methyl}amino)-N-[(1S)-1-(3,4-difluorophenyl)ethyl]-5-sulfamoylpyridine-3-carboxamide], the pEC50 in experiment [1] (setting [3]) is 5.00 to 6.00. For the same molecule, at PDK1 (setting [4]), the pIC50 was above 7.00.

In the case of `CC[C@H](NC(=O)c1cccnc1NCc1ccc(-c2ccc3ncnc(N)c3c2)s1)c1cccc(F)c1` [Example 3.42, (S)-2-((5-(4-aminoquinazolin-6-yl)thiophen-2-yl)methylamino)-N-(1-(3-fluorophenyl)propyl) nicotinamide (TFA salt)], in experiment [1] (setting [3]), the pEC50 is below 5.00. Moreover, on PDK1 (setting [4]), the pIC50 was 6.00 to 7.00.

Consider `Cn1nc(-c2ccc(CNc3ncc(C(F)(F)F)cc3C(=O)NCc3ccc(F)c(F)c3)cc2)c2c(N)ncnc21` [Example 332, 2-(4-(4-amino-1-methyl-1H-pyrazolo[3,4-d]pyrimidin-3-yl)-benzylamino)-N-(3,4-difluorobenzyl)-5-(trifluoromethyl)nicotinamide], for which the pEC50 in experiment [1] (setting [2]) is 5.00 to 6.00. For the same molecule, at PDK1 (inhibition of PDK1 in vitro), the pIC50 is above 7.00.

For `Nc1ncnc2ccc(-c3ccccc3CNc3ncccc3C(=O)NCc3ccc(F)c(F)c3)cc12` [Ex. 6.5, 2-{[2-(4-aminoquinazolin-6-yl)benzyl]amino}-N-(3,4-difluorobenzyl) pyridine-3-carboxamide], in experiment [1] (setting [3]), the negative logarithm of the EC50 (pEC50) was 5.00 to 6.00. At PDK1 (setting [4]), this molecule showed a pIC50 below 5.30.

As for `COc1cc(F)ccc1NC(=O)c1cc(C(F)(F)F)cnc1NCc1ccc(-c2cnc3[nH]nc(N)c3c2)cc1` [Example 261, 2-(4-(3-amino-1H-pyrazolo [3,4-b]pyridin-5-yl)benzylamino)-N-(4-fluoro-2-methoxyphenyl)-5-(trifluoromethyl)nicotinamide], the pEC50 in experiment [1] (setting [2]) is 5.00 to 6.00. The molecule also showed a pIC50 on PDK1 (inhibition of PDK1 in vitro) above 7.00.

As to `C[C@H](NC(=O)c1cccnc1NCc1ccc(-c2ccc3ncnc(N)c3c2)s1)c1cccc(F)c1` [Example 3.21, 2-({[5-(4-aminoquinazolin-6-yl)thiophen-2-yl]methyl}amino)-N-[(1S)-1-(3-fluorophenyl)ethyl]pyridine-3-carboxamide (TFA salt)], in experiment [1] (setting [3]), the pEC50 was 5.00 to 6.00. At PDK1 (setting [4]), this molecule gave a pIC50 above 7.00.

Regarding `Nc1ncnc2ccc(-c3ccc(CNc4nccc5c4C(=O)N(Cc4ccc(F)c(F)c4)CC5)s3)cc12` [Ex. 7.18, 8-({[5-(4-aminoquinazolin-6-yl)thiophen-2-yl]methyl}amino)-2-(3,4-difluorobenzyl)-3,4-dihydro-2,7-naphthyridin-1(2H)-one], the pEC50 in experiment [1] (setting [3]) is above 6.00. Moreover, the pIC50 against PDK1 (setting [4]) was above 7.00.

In the case of `O=C(NCc1ccc(F)c(F)c1)c1cccnc1NCc1ccc(-c2cnc3[nH]ncc3c2)s1` [Example 2.32, 2-(((5-(1H-pyrazolo[3,4-b]pyridin-5-yl)thiophen-2-yl)methyl)amino)-N-(3,4-difluorobenzyl) nicotinamide], in experiment [1] (setting [3]), the pEC50 is 5.00 to 6.00. The same molecule showed a pIC50 on PDK1 (setting [4]) above 7.00.

Turning to `Nc1ncnc2ccc(-c3ccc(CNc4nccc(C(F)(F)F)c4C(=O)NCc4ccc(F)c(F)c4)s3)cc12` [Example 8.12.4, 2-({[5-(4-aminoquinazolin-6-yl)thiophen-2-yl]methyl}amino)-N-(3,4-difluorobenzyl)-4-(trifluoromethyl)pyridine-3-carboxamide], the pEC50 in experiment [1] (setting [3]) is 5.00 to 6.00. For the same molecule, the pIC50 against PDK1 (setting [4]) is below 5.30.

For the molecule `Nc1n[nH]c2ncc(-c3ccc(CNc4nccc5ncn(Cc6ccc(F)c(F)c6)c(=O)c45)cc3)cc12` [Example 40, 5-(4-(3-amino-1H-pyrazolo[3,4-b]pyridin-5-yl)benzylamino)-3-(3,4-difluorobenzyl)pyrido[4,3-d]pyrimidin-4(3H)-one], the negative logarithm of the EC50 (pEC50) in experiment [1] (setting [3]) is above 6.00. The pIC50 at PDK1 (setting [4]) was above 7.00.

As to `C[C@H](NC(=O)c1cccnc1NCc1ccc(-c2cnc3[nH]c(=O)[nH]c3c2)cc1)c1ccc(F)cc1` [Example 359, (S)-N-(1-(4-fluorophenyl)ethyl)-2-(4-(2-oxo-2,3-dihydro-1H-imidazo[4,5-b]pyridin-6-yl)benzylamino) nicotinamide], the negative logarithm of the EC50 (pEC50) in experiment [1] (setting [2]) is above 6.00. Besides, the pIC50 on PDK1 (inhibition of PDK1 in vitro) is above 7.00.

Consider `C[C@H](NC(=O)c1nc(C#N)cnc1NCc1ccc(-c2cnc(N)c(N3CCC[C@H](N)C3)n2)cc1)c1ccc(F)c(F)c1` [Example 198], for which the pEC50 in experiment [1] (setting [2]) is above 6.00. On PDK1 (inhibition of PDK1 in vitro), this molecule gave a pIC50 above 7.00.

As for `C[C@H](NC(=O)c1cccnc1NCc1ccc(-c2ccn3ncnc3c2)s1)c1ccc(F)cc1` [Example 2.5, N-[(1S)-1-(4-fluorophenyl)ethyl]-2-({[5-([1,2,4]triazolo[1,5-a]pyridin-7-yl)thiophen-2-yl)methyl}amino)pyridine-3-carboxamide], the pEC50 in experiment [1] (PC-3, 2 h, inhibition of P308 Akt in PC-3 cells, MSD) is below 5.00. The molecule further gave a negative logarithm of the IC50 (pIC50) against PDK1 (setting [4]) of 5.30 to 6.00.

As for `Nc1ncnc2ccc(-c3ccc(CNc4ncccc4C(=O)Nc4ccc(Cl)c(F)c4)s3)cc12` [Example 3.55, 2-({[5-(4-aminoquinazolin-6-yl)thiophen-2-yl]methyl}amino)-N-(4-chloro-3-fluorophenyl) pyridine-3-carboxamide (TFA salt)], in experiment [1] (setting [3]), the pEC50 was below 5.00. The pIC50 on PDK1 (setting [4]) was 6.00 to 7.00.

With `C[C@H](NC(=O)c1cc(F)cnc1NCc1ccc(-c2cc3c(N)ncnc3cn2)s1)c1ccc(F)c(F)c1` [Example 7.15, 2-({[5-(4-aminopyrido[3,4-d]pyrimidin-6-yl)thiophen-2-yl]methyl}amino)-N-[(1S)-1-(3,4-difluorophenyl)ethyl]-5-fluoropyridine-3-carboxamide], the pEC50 in experiment [1] (setting [3]) was 5.00 to 6.00. In addition, the pIC50 against PDK1 (setting [4]) is 6.00 to 7.00.

In the case of `Nc1ncnc2ccc(-c3ccc(CNc4ncccc4C(=O)NCc4cncnc4)s3)cc12` [Example 3.57, 2-({[5-(4-aminoquinazolin-6-yl)thiophen-2-yl]methyl}amino)-N-(pyrimidin-5-ylmethyl) pyridine-3-carboxamide (TFA salt)], the pEC50 in experiment [1] (setting [3]) was 5.00 to 6.00. The molecule further gave a pIC50 on PDK1 (setting [4]) of 5.30 to 6.00.

For `C[C@H](NC(=O)c1cc(C#N)cnc1NCc1ccc(-c2cnc(NCCN(C)C)cn2)cc1)c1ccc(F)cc1` [Example 226, 5-Cyano-2-{4-[5-(2-dimethylamino-ethylamino)-pyrazin-2-yl]-benzylamino}-N-[(S)-1-(4-fluoro-phenyl)-ethyl]-nicotinamide], the pEC50 in experiment [1] (setting [2]) was below 5.00. This molecule also gave a pIC50 against PDK1 (inhibition of PDK1 in vitro) below 5.30.

The pEC50 is −log10 of the EC50, conventionally taken in molar units. The pIC50 is the IC50 on a negative log10 scale, so that one unit is a factor of ten. Read a high pIC50 as a low IC50.
